Test results from PubChem BioAssay (NCI).
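Five concentrations, 48 hours, 96-well plates. GI50: concentration for 50% inhibition of growth. TGI: concentration producing complete growth inhibition.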

Columns and labels:
Assay in all cases: DTP human tumour cell line panel, 48 h
SF-295 CNS = system: SF-295 CNS
HT29 colon = system: HT29 colon
EKVX NSCLC = system: EKVX NSCLC
UO-31 renal = system: UO-31 renal
CAKI-1 renal = system: CAKI-1 renal
OVCAR-3 ovarian = system: OVCAR-3 ovarian
SR leukemia = system: SR leukemia
OVCAR-8 ovarian = system: OVCAR-8 ovarian
U251 CNS = system: U251 CNS
HOP-92 NSCLC = system: HOP-92 NSCLC
SNB-19 CNS = system: SNB-19 CNS
SN12C renal = system: SN12C renal
T-47D breast = system: T-47D breast
OVCAR-5 ovarian = system: OVCAR-5 ovarian
MDA-MB-435 = system: MDA-MB-435
A498 renal = system: A498 renal
SF-539 CNS = system: SF-539 CNS
KM12 colon = system: KM12 colon
UACC-257 melanoma = system: UACC-257 melanoma
SF-268 CNS = system: SF-268 CNS
COLO 205 colon = system: COLO 205 colon
MDA-MB-231 breast = system: MDA-MB-231 breast
TK-10 renal = system: TK-10 renal
MALME-3M melanoma = system: MALME-3M melanoma
RPMI-8226 leukemia = system: RPMI-8226 leukemia
HS 578T breast = system: HS 578T breast
HCC-2998 colon = system: HCC-2998 colon
CCRF-CEM leukemia = system: CCRF-CEM leukemia
IGROV1 ovarian = system: IGROV1 ovarian
K-562 leukemia = system: K-562 leukemia
SK-OV-3 ovarian = system: SK-OV-3 ovarian
ACHN renal = system: ACHN renal
DU-145 prostate = system: DU-145 prostate
SK-MEL-5 melanoma = system: SK-MEL-5 melanoma
SK-MEL-28 melanoma = system: SK-MEL-28 melanoma
UACC-62 melanoma = system: UACC-62 melanoma
M14 melanoma = system: M14 melanoma
PC-3 prostate = system: PC-3 prostate
A549 NSCLC = system: A549 NSCLC
HOP-62 NSCLC = system: HOP-62 NSCLC
HCT-116 colon = system: HCT-116 colon
MCF7 breast = system: MCF7 breast
LOX IMVI melanoma = system: LOX IMVI melanoma
HCT-15 colon = system: HCT-15 colon
MOLT-4 leukemia = system: MOLT-4 leukemia
NCI-H460 lung = system: NCI-H460 lung
OVCAR-4 ovarian = system: OVCAR-4 ovarian
786-0 renal = system: 786-0 renal
RXF 393 renal = system: RXF 393 renal
SNB-75 CNS = system: SNB-75 CNS
HL-60(TB) leukemia = system: HL-60(TB) leukemia
SW-620 colon = system: SW-620 colon
BT-549 breast = system: BT-549 breast
NCI-H226 lung = system: NCI-H226 lung
NCI-H23 lung = system: NCI-H23 lung
NCI-H522 lung = system: NCI-H522 lung
SK-MEL-2 melanoma = system: SK-MEL-2 melanoma

## NC(=O)c1cc(Br)ccc1NC(=O)/C=C/c1ccccc1
SF-295 CNS
  GI50: 1.33 µM
  TGI: > 20.3 µM
HT29 colon
  GI50: 0.914 µM
  TGI: > 100 µM
EKVX NSCLC
  GI50: 3.27 µM
  TGI: > 100 µM
UO-31 renal
  GI50: 3.37 µM
  TGI: > 100 µM
CAKI-1 renal
  GI50: 6.17 µM
  TGI: > 100 µM
OVCAR-3 ovarian
  GI50: 0.887 µM
  TGI: 4.21 µM
SR leukemia
  GI50: 0.823 µM
  TGI: > 100 µM
OVCAR-8 ovarian
  GI50: 14.1 µM
  TGI: > 100 µM
U251 CNS
  GI50: 1.81 µM
  TGI: > 43.4 µM
HOP-92 NSCLC
  GI50: 5.34 µM
  TGI: 25.8 µM
SNB-19 CNS
  GI50: 5.36 µM
  TGI: > 36.9 µM
SN12C renal
  GI50: 4.9 µM
  TGI: > 100 µM
T-47D breast
  GI50: 3.51 µM
  TGI: > 100 µM
OVCAR-5 ovarian
  GI50: 10.3 µM
  TGI: > 100 µM
MDA-MB-435
  GI50: 0.421 µM
  TGI: 3.09 µM
A498 renal
  GI50: 1.66 µM
  TGI: 11.7 µM
SF-539 CNS
  GI50: 1.24 µM
  TGI: 8.57 µM
KM12 colon
  GI50: 1.09 µM
  TGI: > 100 µM
UACC-257 melanoma
  GI50: 24.9 µM
  TGI: > 100 µM
SF-268 CNS
  GI50: 2.85 µM
  TGI: > 39.4 µM
COLO 205 colon
  GI50: 1.23 µM
  TGI: > 39.5 µM
MDA-MB-231 breast
  GI50: 2.87 µM
  TGI: > 41.4 µM
TK-10 renal
  GI50: 5.93 µM
  TGI: 39.3 µM
MALME-3M melanoma
  GI50: 11.6 µM
  TGI: > 100 µM
RPMI-8226 leukemia
  GI50: 3.29 µM
  TGI: > 100 µM
HS 578T breast
  GI50: 1.09 µM
  TGI: 6.27 µM
HCC-2998 colon
  GI50: 28.1 µM
  TGI: > 100 µM
CCRF-CEM leukemia
  GI50: 0.803 µM
  TGI: 9.97 µM
IGROV1 ovarian
  GI50: 2.35 µM
  TGI: > 100 µM
K-562 leukemia
  GI50: 0.829 µM
  TGI: > 34.4 µM
SK-OV-3 ovarian
  GI50: 3.68 µM
  TGI: > 23.6 µM
ACHN renal
  GI50: 6.45 µM
  TGI: > 100 µM
DU-145 prostate
  GI50: 2.3 µM
  TGI: > 100 µM
SK-MEL-5 melanoma
  GI50: 0.608 µM
  TGI: > 60.2 µM
SK-MEL-28 melanoma
  GI50: 1.42 µM
  TGI: > 100 µM
UACC-62 melanoma
  GI50: 1.24 µM
  TGI: > 100 µM
M14 melanoma
  GI50: 1.96 µM
  TGI: > 100 µM
PC-3 prostate
  GI50: 1.19 µM
  TGI: > 100 µM
A549 NSCLC
  GI50: 2.39 µM
  TGI: > 100 µM
HOP-62 NSCLC
  GI50: 5.47 µM
  TGI: > 23.7 µM
HCT-116 colon
  GI50: 1.24 µM
  TGI: > 100 µM
MCF7 breast
  GI50: 0.757 µM
  TGI: > 100 µM
LOX IMVI melanoma
  GI50: 10.6 µM
  TGI: > 100 µM
HCT-15 colon
  GI50: 1.38 µM
  TGI: > 100 µM
MOLT-4 leukemia
  GI50: 4.02 µM
  TGI: > 53.9 µM
NCI-H460 lung
  GI50: 1.42 µM
  TGI: > 100 µM
OVCAR-4 ovarian
  GI50: 8.85 µM
  TGI: > 100 µM
786-0 renal
  GI50: 3.72 µM
  TGI: > 34.8 µM
RXF 393 renal
  GI50: 1.15 µM
  TGI: 5.9 µM
SNB-75 CNS
  GI50: 2.16 µM
  TGI: 10.7 µM
HL-60(TB) leukemia
  GI50: 0.876 µM
  TGI: 4.11 µM
SW-620 colon
  GI50: 0.986 µM
  TGI: > 100 µM
BT-549 breast
  GI50: 4.97 µM
  TGI: 28.7 µM
NCI-H226 lung
  GI50: 6.93 µM
  TGI: > 100 µM
NCI-H23 lung
  GI50: 10.8 µM
  TGI: > 100 µM
NCI-H522 lung
  GI50: 0.981 µM
  TGI: 22 µM

## CCCCCCCCCCCCCCCCN(CC)CC
SF-295 CNS
  GI50: 1.73 µM
  TGI: 3.55 µM
HT29 colon
  GI50: 2.13 µM
  TGI: 4.59 µM
EKVX NSCLC
  GI50: 2.02 µM
  TGI: 4.76 µM
UO-31 renal
  GI50: 1.6 µM
  TGI: 3.47 µM
CAKI-1 renal
  GI50: 1.69 µM
  TGI: 3.24 µM
OVCAR-3 ovarian
  GI50: 2.87 µM
  TGI: 7.99 µM
SR leukemia
  GI50: 1.99 µM
  TGI: 4.51 µM
HOP-92 NSCLC
  GI50: 1.74 µM
  TGI: 3.94 µM
SNB-19 CNS
  GI50: 3.29 µM
  TGI: 13.9 µM
SN12C renal
  GI50: 2.21 µM
  TGI: 5.53 µM
T-47D breast
  GI50: 3.39 µM
  TGI: 17 µM
OVCAR-5 ovarian
  GI50: 1.94 µM
  TGI: 4.26 µM
MDA-MB-435
  GI50: 1.95 µM
  TGI: 3.86 µM
A498 renal
  GI50: 17.9 µM
  TGI: 37.2 µM
SF-539 CNS
  GI50: 1.67 µM
  TGI: 3.06 µM
KM12 colon
  GI50: 1.87 µM
  TGI: 3.59 µM
UACC-257 melanoma
  GI50: 1.99 µM
  TGI: 4.98 µM
SF-268 CNS
  GI50: 2.64 µM
  TGI: 8.31 µM
COLO 205 colon
  GI50: 2.01 µM
  TGI: 3.82 µM
MDA-MB-231 breast
  GI50: 1.75 µM
  TGI: 3.21 µM
TK-10 renal
  GI50: 1.71 µM
  TGI: 3.4 µM
MALME-3M melanoma
  GI50: 1.92 µM
  TGI: 4.35 µM
RPMI-8226 leukemia
  GI50: 2.23 µM
  TGI: 4.75 µM
HS 578T breast
  GI50: 3.47 µM
  TGI: 15.8 µM
HCC-2998 colon
  GI50: 1.77 µM
  TGI: 3.3 µM
IGROV1 ovarian
  GI50: 1.79 µM
  TGI: 3.36 µM
SK-OV-3 ovarian
  GI50: 3.1 µM
  TGI: 9.8 µM
ACHN renal
  GI50: 2.1 µM
  TGI: 4.45 µM
DU-145 prostate
  GI50: 2.79 µM
  TGI: 7.52 µM
SK-MEL-5 melanoma
  GI50: 1.94 µM
  TGI: 3.79 µM
SK-MEL-28 melanoma
  GI50: 1.91 µM
  TGI: 3.84 µM
UACC-62 melanoma
  GI50: 1.75 µM
  TGI: 3.28 µM
M14 melanoma
  GI50: 1.94 µM
  TGI: 3.84 µM
PC-3 prostate
  GI50: 2.16 µM
  TGI: 5.97 µM
HOP-62 NSCLC
  GI50: 2.87 µM
  TGI: 8.77 µM
HCT-116 colon
  GI50: 1.77 µM
  TGI: 3.22 µM
MCF7 breast
  GI50: 2.33 µM
  TGI: 6.09 µM
LOX IMVI melanoma
  GI50: 1.73 µM
  TGI: 3.38 µM
HCT-15 colon
  GI50: 1.88 µM
  TGI: 3.66 µM
SK-MEL-2 melanoma
  GI50: 3.01 µM
  TGI: 8.9 µM
NCI-H460 lung
  GI50: 1.92 µM
  TGI: 3.56 µM
OVCAR-4 ovarian
  GI50: 3.31 µM
  TGI: 11.1 µM
786-0 renal
  GI50: 1.69 µM
  TGI: 3.1 µM
RXF 393 renal
  GI50: 1.88 µM
  TGI: 4.2 µM
SNB-75 CNS
  GI50: 2.39 µM
  TGI: 9.03 µM
SW-620 colon
  GI50: 2.03 µM
  TGI: 3.9 µM
BT-549 breast
  GI50: 1.87 µM
  TGI: 3.89 µM
NCI-H226 lung
  GI50: 3.74 µM
  TGI: 16.9 µM
NCI-H23 lung
  GI50: 2.83 µM
  TGI: 9 µM
NCI-H522 lung
  GI50: 1.76 µM
  TGI: 3.48 µM
